# Experiments:
# Long-Evans rats = assay: Novel object recognition test, scopolamine-induced cognitive impairment; assay type: in vivo, rat; conditions: 0.1 and 1 mg/kg PO
# Description: Total exploration time of two identical objects in the acquisition trial was measured manually and indicated as the mean±SEM (n=8). No statistical difference was found in the total exploration time among the different groups by one-way ANOVA (P=0.115).
# NDI was calculated using the following equation: novel object interaction time/total interaction time×100(%). Data are represented as the mean±SEM (n=8). Significant difference from control group was indicated by ***P<0.001 (Student's t-test). Significant differences from scopolamine-treated vehicle group were indicated by ##P<0.01 (Dunnett test). Significant difference from scopolamine-treated vehicle group were indicated by †††P<0.001 (Student's t-test).
# Exploration time of each object in retention trial was measured manually and presented as the mean±SEM (n=8). Significant differences from familiar object interaction were indicated by **P<0.01, *P<0.05 (paired t-test).
# A novel object recognition test (which evaluates visual learning and memory) was conducted to investigate the effect of compound 1 on scopolamine-induced cognitive impairment in Long-Evans rats. Donepezil was used as a positive control. Scopolamine at 0.1 mg/kg SC reduced the novelty discrimination index (NDI) a measure of cognitive function (FIGS. 4-6).
# Wistar rats = assay: Novel object recognition test, subchronic PCP-induced cognitive impairment; assay type: in vivo, rat
# Description: The total exploration time of two identical objects in the acquisition trial was measured manually and indicated as the mean±SEM (n=10). No statistical difference was found in the total exploration time among the different groups by one-way ANOVA (P=0.340).
# NDI was calculated using the following equation: novel object interaction time/total interaction time×100(%). Data are represented as the mean±SEM (n=10). Significant difference from control group was indicated by ***P<0.001 (Student's t-test). Significant differences from PCP-treated group were indicated by ##P<0.01, #P<0.05 (Dunnett test). Significant difference from PCP-treated group were indicated by ††P<0.01 (Student's t-test).
# Exploration time of each object in retention trial was measured manually and presented as the mean±SEM (n=10). Significant differences from familiar object interaction were indicated by ***P<0.001, **P<0.01 (paired t-test).
# A novel object recognition test was conducted to investigate the effect of SP-624 on subchronic PCP-induced cognitive impairment in Wistar rats. Clozapine was used as a positive control.
# [1] = system: adult subjects with major depressive disorder (MDD); assay: Phase 2 clinical trial in MDD: QIDS-SR Item #10 Concentration/Decision Making; assay type: in vivo, human; set-up: key to QIDS-SR Item #10 score, Median / QIDS-SR Item #10 score, Min / QIDS-SR Item #10 score, Max: QIDS-SR Item 10 scored 0 (no change) to 3 (cannot concentrate/decide); conditions: 20 mg/day; for QIDS-SR Item #10 Change from Baseline, Max / QIDS-SR Item #10 Change from Baseline, Mean (SD) / QIDS-SR Item #10 Change from Baseline, Median / QIDS-SR Item #10 Change from Baseline, Min / QIDS-SR Item #10 score, Max / QIDS-SR Item #10 score, Mean (SD) / QIDS-SR Item #10 score, Median / QIDS-SR Item #10 score, Min: mITT, Females
# Description: A Phase 2, multicenter, double-blind, randomized, placebo-controlled study of the safety and efficacy of SP-624 in the treatment of adult subjects with major depressive disorder (MDD) as defined by the Diagnostic and Statistical Manual of Mental Disorders, Fifth Edition (DSM-5) was carried out. Following the successful completion of a Screening Phase, subjects were randomized to one of two treatment groups in a 1:1 ratio and received Compound 1 (SP-624) or placebo over a treatment period of four weeks (Treatment Group #1: SP-624 20 mg/day; Treatment Group #2: Placebo).
# Prior to initiating the 4-week treatment period, subjects completed a Screening/Baseline period of up to 28 days, during which time all screening assessments were performed, and any current depression medications discontinued. All screening assessments were completed before discontinuing any current depression medications. Subjects returned for a Baseline Visit to complete efficacy and safety assessments. During the treatment period, subjects returned to the investigative site to complete efficacy and safety assessments at the end of Weeks 1, 2, 3, and 4. After the final dose of study drug, subjects completed a follow-up period of two weeks and returned at the end of Weeks 5 and 6. Subjects may be treated with anti-depressant medications according to physician recommendations after completion of the Week 5 Visit.
# Each dose of Compound 1 was supplied as two capsules, each containing 10 mg of active pharmaceutical ingredient (API). Matching placebo capsules identical in shape and color to the active capsules were used.
# The study included several measurements related to cognitive function. The first is the QIDS-SR) Item #10 Concentration/Decision Making. The answer scale is: 0—There is no change in my usual capacity to concentrate or make decisions; 1—I occasionally feel indecisive or find that my attention wanders; 2—Most of the time, I struggle to focus my attention or to make decisions; 3—I cannot concentrate well enough to read or cannot make even minor decisions.
structure (smiles),measurement,setting,value
"COC1=CC(=O)C[C@@H](C)[C@]12Oc1c(Cl)c(-c3nnc(C)o3)cc(OC)c1C2=O [Compound 1, (2S,6′R)-7-Chloro-2′,4-dimethoxy-6′-methyl-6-(5-methyl-1,3,4-oxadiazol-2-yl)-3H-spiro[1-benzofuran-2,1′-cyclohex[2]ene]-3,4′-dione]",novelty discrimination index (NDI) reduced by scopolamine,Long-Evans rats,significantly improved
same,sub-chronic PCP-induced cognitive deficits in the NDI,Wistar rats; 0.01 mg/kg,not
same,sub-chronic PCP-induced cognitive deficits in the NDI,Wistar rats; 0.1 and 1 mg/kg,significantly attenuated
same,"QIDS-SR Item #10 Change from Baseline, Max",[1]; Week 2,1
same,"QIDS-SR Item #10 Change from Baseline, Mean (SD)",[1]; Week 2,−0.3 (0.71)
same,"QIDS-SR Item #10 Change from Baseline, Median",[1]; Week 2,0.0
same,"QIDS-SR Item #10 Change from Baseline, Min",[1]; Week 2,−3
same,"QIDS-SR Item #10 score, Max",[1]; Week 2,3
same,"QIDS-SR Item #10 score, Mean (SD)",[1]; Week 2,1.5 (0.82)
same,"QIDS-SR Item #10 score, Median",[1]; Week 2,2.0
same,"QIDS-SR Item #10 score, Min",[1]; Week 2,0
same,"QIDS-SR Item #10 Change from Baseline, Max",[1]; Week 4,1
same,"QIDS-SR Item #10 Change from Baseline, Mean (SD)",[1]; Week 4,−0.6 (0.80)
same,"QIDS-SR Item #10 Change from Baseline, Median",[1]; Week 4,0.0
same,"QIDS-SR Item #10 Change from Baseline, Min",[1]; Week 4,−3
same,"QIDS-SR Item #10 score, Max",[1]; Week 4,3
same,"QIDS-SR Item #10 score, Mean (SD)",[1]; Week 4,1.2 (0.86)
same,"QIDS-SR Item #10 score, Median",[1]; Week 4,1.0
same,"QIDS-SR Item #10 score, Min",[1]; Week 4,0
same,"QIDS-SR Item #10 Concentration/Decision Making, improvement in score vs placebo",[1]; by week 4 of treatment,greater improvement in score

# Source: patent publication US20260034103A1, “COMPOSITIONS AND METHODS FOR IMPROVING MEMORY AND COGNITION” (priority 2022, published 2026)
